Among the data in ChEMBL document CHEMBL3507680, “University of Dundee, Gates Library screen for HepG2 cell viability” are cytotoxicity values, retold here.

The nature of the series: Human HepG2 cell viability assay in 384 well format. Set-up: dose 125 nL, time 70.5 hour; cytotoxicity at 70.5 h: concentration not given beside the values. To be noted: HepG2 cells, read-out: Inhibition. It counts as toxicity, cell-based.
On to `COc1ccccc1-n1nc(-c2ccco2)n(CC(N)=O)c1=O`, for which the cytotoxicity at 70.5 h is -7.68%.

For `O=C(CCc1nc(Cl)n[nH]1)N[C@H]1CC[C@H]1NC1Cc2ccccc2C1`, the cytotoxicity at 70.5 h was -9.72%.

For `Cc1ccc(S(=O)(=O)NC(=O)CCOCC(C)C)s1`, the cytotoxicity at 70.5 h came out at 8.21%.

Consider `Cc1nccn1C1CCCN(C(=O)c2cc(Cl)c3c(c2)OCO3)C1` (stereo not given), for which the cytotoxicity at 70.5 h was -5.54%.

For `CCS(=O)(=O)N1CC(=O)N(Cc2ccccc2OC)CC(O)C1` (stereo not given), the cytotoxicity at 70.5 h amounted to 17.6%.

As to `COc1cc(N2C[C@@H]3COC[C@]3(C(=O)NCc3ccccn3)C2)ncn1`, the cytotoxicity at 70.5 h is -3.03%.

With `O=C1NCCN1CCNc1cc(-c2ccncc2)nc2ccnn12`, the cytotoxicity at 70.5 h is -10.3%.

As to `CC(C)N1CCCC(C(=O)N2CCc3c(nc(CC4CC4)[nH]c3=O)C2)C1` (stereo not given), the cytotoxicity at 70.5 h is 3.48%.

Take `Cn1c(C2CC2)nc2c1CCN(CC(=O)Nc1nccs1)C2`: the cytotoxicity at 70.5 h was -6.18%.

For `NC(=O)NC(CC(=O)N1CCc2sccc2C1)c1ccccc1F` (stereo not given), the cytotoxicity at 70.5 h is -17.5%.

For `O=C(O)[C@@H]1CN(C2CCCCC2)C[C@H]1C1CC1`, the cytotoxicity at 70.5 h is -13.9%.

With `CCc1ncc(C(=O)N2CCCOC(Cn3cccn3)C2)cn1` (stereo not given), the cytotoxicity at 70.5 h is -0.891%.

In the case of `CC(=O)c1ccc(N2CCC(CO)(CCOc3ccccc3)CC2)nc1`, the cytotoxicity at 70.5 h is -11%.

On to `Cc1cc(C2CCCN2CC(=O)N(CCC#N)c2ccccc2F)on1` (stereo not given), for which the cytotoxicity at 70.5 h is -12.2%.

On to `CCCc1cnc(C)nc1NCCc1nc(C)cc(=O)[nH]1`, for which the cytotoxicity at 70.5 h is -9.64%.

Regarding `Cc1ccc(CN(C)C(=O)c2cnsn2)cc1`, the cytotoxicity at 70.5 h was found to be 4.93%.

As for `COc1cccc2ccn(CC(=O)NC(C)C)c12`, the cytotoxicity at 70.5 h is 11.3%.

Turning to `COc1ccc(CCNC(=O)Nc2cc(C)nn2C)cc1`, the cytotoxicity at 70.5 h was -2.92%.

In the case of `COc1cccc(Cn2cc(C3=CCN(CC(=O)N(C)C)CC3)cn2)c1`, the cytotoxicity at 70.5 h is -16.4%.

Consider `Cc1cn[nH]c1C1CCCCN1C(=O)CCc1c(C)n[nH]c1C` (stereo not given), for which the cytotoxicity at 70.5 h was -2.55%.

As to `CCC(O)CN1CCN(C(=O)c2ccc(N(C)C)nn2)CC1` (stereo not given), the cytotoxicity at 70.5 h is -2.61%.

Regarding `CCN1C[C@H]2[C@@H](C1)N(S(=O)(=O)c1ccccc1)CC[C@H]2OC`, the cytotoxicity at 70.5 h is -2.93%.

For the compound `CC(C)CN1C[C@H]2C[C@H](C(=O)NCc3cccnc3)[C@@H](C1)O2`, the cytotoxicity at 70.5 h turned out to be 2.54%.

In the case of `CO[C@@H]1CCN(c2ncc(F)cn2)[C@@H]2CN(CC3CC3)C[C@@H]21`, the cytotoxicity at 70.5 h was -11.2%.

For the compound `NC1C=C(C(F)(F)F)NC=C1c1ccccc1` (stereo not given), the cytotoxicity at 70.5 h is -0.126%.

Take `CNC(=O)COc1ccc(CNc2cncc(-n3cccn3)n2)cc1`: the cytotoxicity at 70.5 h is -16.8%.

Regarding `COc1ccc(-c2ccnc(C3CCNCC3)c2)cc1`, the cytotoxicity at 70.5 h was -5.12%.

Consider `CNC(=O)CCS(=O)(=O)Cc1cc(Cl)c2c(c1)OCCO2`, for which the cytotoxicity at 70.5 h was -3.97%.

As to `Cc1cc(C2CCCN(CCCNS(C)(=O)=O)C2)n[nH]1` (stereo not given), the cytotoxicity at 70.5 h is -25.3%.

Consider `CC(C)c1cc(NC(=O)c2cccnc2)[nH]n1`, for which the cytotoxicity at 70.5 h was -10.3%.

For the compound `Cc1nnc(CN2CCCCC2c2nc(-c3ccccc3)no2)s1` (stereo not given), the cytotoxicity at 70.5 h is -8.42%.

Regarding `CC(C)CSCCCNC(=O)C1CCC1`, the cytotoxicity at 70.5 h was -2.26%.

Consider `CCOCCCNC(=O)CN(c1cc(C)cc(C)c1)S(C)(=O)=O`, for which the cytotoxicity at 70.5 h was -14.2%.

For the compound `Cc1ncc2c(n1)CN(c1ncnc3[nH]ccc13)CC2`, the cytotoxicity at 70.5 h was determined as 1.91%.

As to `Cc1nc2c(c(N3C[C@@H](C)[C@@](C)(O)C3)n1)CCC2`, the cytotoxicity at 70.5 h is 22.5%.

As to `O=C(NCCc1ccccn1)[C@@H]1CC[C@@H]2[C@@H](CCN2Cc2ccoc2)O1`, the cytotoxicity at 70.5 h was found to be 0.0992%.

In the case of `CN1CC[C@H]2[C@H](C[C@@H](CN3CCCC3)N2c2nccs2)C1`, the cytotoxicity at 70.5 h was -3.73%.

Take `COc1cccc(Nc2nc(C3CCNCC3)c3ccccn23)c1`: the cytotoxicity at 70.5 h was -2.27%.

`CCc1cc(N[C@H]2CC[C@@H](N)CC2)n2nc(C)c(C)c2n1`: the cytotoxicity at 70.5 h was -7.71%.

Regarding `CC(C)[C@]1(O)CN(C(=O)CNC(N)=O)C[C@H]1C`, the cytotoxicity at 70.5 h is -0.763%.

For `COc1cccc(CNC(=O)CCOc2ccccc2C)c1`, the cytotoxicity at 70.5 h was -10.3%.

As for `CCc1cc(N(C)Cc2noc(C(C)C)n2)nc(N2CCOCC2)n1`, the cytotoxicity at 70.5 h is -13.5%.

For `Cc1ccc([C@@H]2CN(C(=O)CCc3cc(Cl)no3)C[C@H]2N(C)C)cc1`, the cytotoxicity at 70.5 h was 11.1%.

As for `CCCc1ccc(S(=O)(=O)Nc2ccc(=O)n(C)c2)cc1`, the cytotoxicity at 70.5 h was 22.8%.

On to `CCC(C)NC(=O)c1ccn(COc2ccccc2Cl)n1` (stereo not given), for which the cytotoxicity at 70.5 h was -1.06%.

In the case of `O=C(c1ccc(F)cc1)N1CCN2C[C@H](Oc3cccnc3)C[C@H]2C1`, the cytotoxicity at 70.5 h is 0.416%.

As for `CCC1=N[C@@]2(CC[C@@H]3CN(S(=O)(=O)CC)C[C@@H]32)C(=O)N1CC(C)C`, the cytotoxicity at 70.5 h was -1.65%.

On to `Cn1cc(C(=O)NCCc2ccc(OC3CCCC3)cc2)ccc1=O`, for which the cytotoxicity at 70.5 h amounted to 1.62%.

In the case of `CC(C)c1nnc(CCC(=O)N2CCOC(c3cnccn3)C2)o1` (stereo not given), the cytotoxicity at 70.5 h was -5.45%.

Take `Cc1nc(COC[C@@H]2CCC[C@@]23CN(C)CCO3)cs1`: the cytotoxicity at 70.5 h was determined as 4.91%.

As to `CCOc1ccc(Cl)cc1C(C(=O)O)N1CCC(CO)CC1` (stereo not given), the cytotoxicity at 70.5 h was 0.285%.

Turning to `COCCNC(=O)Cn1cc(OCc2ccc(F)cc2)c(=O)cc1C`, the cytotoxicity at 70.5 h amounted to 9.56%.

Turning to `Nc1ccc(C(=O)N2CCCC(C(=O)CCc3ccccc3)C2)cn1` (stereo not given), the cytotoxicity at 70.5 h was -20%.

For the compound `O=C(c1cnccn1)N1CCN2C[C@H](Oc3cccnc3)C[C@H]2C1`, the cytotoxicity at 70.5 h turned out to be 4.06%.

Consider `COc1ccc(C(=O)N2CC[C@@H]3[C@H](CC2)N(C)CCS3(=O)=O)cc1`, for which the cytotoxicity at 70.5 h is -7.15%.

In the case of `COc1cccc(CNC(=O)CC2CSc3nc(C)c(C)c(=O)n32)c1` (stereo not given), the cytotoxicity at 70.5 h is -2.74%.

Take `O=C(CCCNCc1ccc(Cl)c2cccnc12)NC1CC1`: the cytotoxicity at 70.5 h was -1.79%.

`NC(=O)CN1CCCC(C(=O)N2CCC(O)(Cc3ccccc3)CC2)C1` (stereo not given): the cytotoxicity at 70.5 h was -9.61%.

As to `CC(NC(=O)NCCCn1cncn1)c1ccc(C#N)cc1` (stereo not given), the cytotoxicity at 70.5 h amounted to 1.25%.

With `Cc1cnc(CN(C)C2CCN(CC(=O)Nc3c(C)n[nH]c3C)C2)o1` (stereo not given), the cytotoxicity at 70.5 h was found to be 11.7%.

Regarding `COc1ccnc(CNc2nc(C)nc3ccsc23)c1`, the cytotoxicity at 70.5 h stood at 3.18%.

Regarding `CNc1cc(CNC(=O)c2ccncc2)nc(-c2ccncc2)n1`, the cytotoxicity at 70.5 h was -2.12%.

Regarding `COCc1ncc(CN(Cc2ccco2)C(C)C(C)C)cn1` (stereo not given), the cytotoxicity at 70.5 h was -15.5%.

As to `Cc1cccn2c(CC(=O)N3CCC(Oc4ncccn4)CC3)cnc12`, the cytotoxicity at 70.5 h worked out at 25.3%.

Take `NC(=O)c1nc2c(s1)CCN(Cc1ccccc1)CC2`: the cytotoxicity at 70.5 h was -2.47%.

In the case of `CCCC1(CO)CCCN(c2ncccc2F)C1` (stereo not given), the cytotoxicity at 70.5 h was -7.06%.

As to `CN(C)C1CCCN(C(=O)NCCNC(=O)C2CCCC2)C1` (stereo not given), the cytotoxicity at 70.5 h was -1.02%.

In the case of `O=S(=O)(CCNCc1ccc2c(c1)CCO2)N1CCOCC1`, the cytotoxicity at 70.5 h was found to be 12.8%.

Take `Cc1ccc(C(N)=O)c(N2Cc3cnc(C(C)(C)C)nc3C2)n1`: the cytotoxicity at 70.5 h was -11.7%.

Consider `NC(=O)CCCNC(=O)COc1ccccc1C(F)(F)F`, for which the cytotoxicity at 70.5 h was -5.37%.
